The values that follow come from ChEMBL document CHEMBL3351373, “Five-membered heteroaromatic ring fused-pyrimidine derivatives: design, synthesis, and hedgehog signaling pathway inhibition study” (Bioorg Med Chem Lett, 2014).

The nature of the assay: Inhibition of hedgehog receptor signaling pathway in mouse NIH3T3 cells transfected with Gli-reporter gene by luciferase reporter gene assay. Format: cell-based.
Take `Cc1cccc(C)c1NC(=O)c1ccc(Nc2nc(-c3ccc(OC(F)(F)F)cc3)c3ccn(C)c3n2)cc1`: the 50% inhibitory concentration (IC50) came out at 2.58 nM. Next, `Cc1cccc(C)c1NC(=O)c1ccc(Nc2nc(-c3ccc(OC(F)(F)F)cc3)c3sccc3n2)cc1`: 3.61 nM.

In turn, `Cc1ccc(CN2CCN(C)CC2)cc1NC(=O)c1ccc(Nc2nc(-c3ccc(OC(F)(F)F)cc3)c3nc[nH]c3n2)cc1` registered an IC50 of 0.9 nM.

For `Cc1ccc(CN2CCOCC2)cc1NC(=O)c1ccc(Nc2nc(-c3ccc(OC(F)(F)F)cc3)c3nc[nH]c3n2)cc1`, the IC50 is 0.69 nM.

On to `Cc1ccc(CN2CCN(C)CC2)cc1NC(=O)c1ccc(Nc2nc(-c3ccc(OC(F)(F)F)cc3)c3c(ccn3C)n2)cc1`, for which half-maximal inhibition (IC50) was put at 5.1 nM.

`Cc1ccc(OCCN2CCOCC2)cc1NC(=O)c1ccc(Nc2nc(-c3ccc(OC(F)(F)F)cc3)c3nc[nH]c3n2)cc1` came in with an IC50 of 2.98 nM.

Take `Cc1ccc(CN2CCN(C)CC2)cc1NC(=O)c1ccc(Nc2nc(-c3ccc(OC(F)(F)F)cc3)c3[nH]ccc3n2)cc1`: the half-inhibitory concentration (IC50) amounted to 1.39 nM. Next, `Cc1cccc(C)c1NC(=O)c1ccc(Nc2nc(-c3ccc(OC(F)(F)F)cc3)c3nc[nH]c3n2)cc1`: 512 nM; `Cc1cccc(C)c1NC(=O)c1ccc(Nc2nc(-c3ccc(OC(F)(F)F)cc3)c3ncn(C)c3n2)cc1`: 116 nM. In the case of `Cc1cccc(C)c1NC(=O)c1ccc(Nc2nc(-c3ccc(OC(F)(F)F)cc3)c3[nH]ccc3n2)cc1` it was 12.8 nM. In the case of `Cc1cccc(C)c1NC(=O)c1ccc(Nc2nc(-c3ccc(OC(F)(F)F)cc3)c3ccsc3n2)cc1`, the IC50 was 0.6 nM. Molecule `Cc1ccc(CN2CCOCC2)cc1NC(=O)c1ccc(Nc2nc(-c3ccc(OC(F)(F)F)cc3)c3cc[nH]c3n2)cc1` displayed a 50% inhibitory concentration (IC50) of 6.04 nM. Next, `Cc1ccc(CN2CCOCC2)cc1NC(=O)c1ccc(Nc2nc(-c3ccc(OC(F)(F)F)cc3)c3ncn(C)c3n2)cc1`: 0.35 nM; `CS(=O)(=O)c1ccc(C(=O)Nc2ccc(Cl)c(-c3ccccn3)c2)c(Cl)c1` [VISMODEGIB]: 7.17 nM. In the case of `FC(F)(F)Oc1ccc(-c2nc(Nc3ccc4[nH]ncc4c3)nc3[nH]cnc23)cc1` it was 399 nM. In the case of `Cc1cccc(C)c1NC(=O)c1ccc(Nc2nc(-c3ccc(OC(F)(F)F)cc3)c3occc3n2)cc1` it was 1.78 nM; in that of `Cc1ccc(CN2CCN(C)CC2)cc1NC(=O)c1ccc(Nc2nc(-c3ccc(OC(F)(F)F)cc3)c3ccsc3n2)cc1`, 3.36 nM.

As for `Cc1cccc(C)c1NC(=O)c1ccc(Nc2nc(-c3ccc(OC(F)(F)F)cc3)c3cc[nH]c3n2)cc1`, 6.85 nM corresponded to half-maximal inhibition (IC50). Next, `Cc1cccc(C)c1NC(=O)c1ccc(Nc2nc(-c3ccc(OC(F)(F)F)cc3)c3c(ccn3C)n2)cc1`: 1.17 nM.

The molecule `Cc1ccc(CN2CCN(C)CC2)cc1NC(=O)c1ccc(Nc2nc(-c3ccc(OC(F)(F)F)cc3)c3sccc3n2)cc1` came in with an IC50 of 9.39 nM. Next, `Cc1ccc(CN2CCOCC2)cc1NC(=O)c1ccc(Nc2nc(-c3ccc(OC(F)(F)F)cc3)c3occc3n2)cc1`: 1.13 nM. With `O=C1Cc2cc(Nc3nc(-c4ccc(OC(F)(F)F)cc4)c4nc[nH]c4n3)ccc2N1`, the IC50 is over 1000 nM. `Cc1ccc(CN2CCOCC2)cc1NC(=O)c1ccc(Nc2nc(-c3ccc(OC(F)(F)F)cc3)c3ccsc3n2)cc1` returned a concentration for half-maximal inhibition (IC50) of 1.75 nM.

The term IC50 denotes the concentration needed to halve the response being measured. High values mean weaker potency in that assay, low ones greater potency in that assay.
